Publication PMC12406204 (Journal of Medicinal Chemistry, 2025)

How the values were obtained:
[1] = tested on: human monocytes and macrophages (THP-1 cells); assay: Cytokine production in THP-1 monocytes and macrophages (ELISA/qRT-PCR); assay type: cell-based; conditions: 100 nM; for cytokine modulation profile (reduction of pro-inflammatory, increase of anti-inflammatory cytokines): monocytes and macrophages; for production of pro-inflammatory cytokines (TNF-α, IFN-γ, IL-1β, IL-6): unstimulated monocytes and macrophages, 24 h
Procedure: Six representative CB2R agonists (16i, 16j, 18e, 18f, 18o, and 18p) were evaluated for their ability to modulate the production of key pro- (e.g., TNF-α, IFN-γ, IL-1β, IL-6) and anti-inflammatory (e.g., IL-4, IL-10) cytokines in human monocytes and macrophages, where CB2R is abundantly expressed. The experiments were performed both in basal and LPS-activated states and would allow to gain insight into how these compounds affect circulating leukocytes (monocytes) and tissue-resident cells (macrophages). To mimic an inflammatory environment, both cell types were also treated with LPS, enabling an assessment of the anti-inflammatory potential of the compounds in both resting and activated states. Alongside the selected ligands, the study included HU308, a well-established CB2R-selective agonist known for its anti-inflammatory properties, and SR144528, a CB2R-selective antagonist. SR144528 was used alone and in combination with the test compounds to confirm that the observed effects were specifically mediated through CB2R activation.
8 Cytokines levels in human monocytes (A, B) and macrophages (C, D) treated with CB2R ligands. THP-1 cells either untreated (A-B) or treated (C, D) with 0.01 μM PMA for 48 h to differentiate them into macrophages, were incubated for additional 24 h in the absence (A, C) or presence of 10 μg/mL LPS (B, D), without (Ctrl) or with the CB2R reference agonist HU308, the reference antagonist SR144528 and the CB2R ligands 16i, 16j, 18e, 18f, 18o, 18p at 100 nM. All the compounds were tested alone (solid bars) and in the presence of the CB2R antagonist SR144528 (striped bars). Cytokine levels were measured by ELISA coupled with qRT-PCR. Data are means ± SD (n = 3). Two-way ANOVA followed by Tukey’s posthoc test was applied. *p < 0.05; **p < 0.01; ***p < 0.001; ****p < 0.0001; * indicates vs Ctrl.
The amount of cytokines was measured in 5 μL of supernatants, derived from 1 × 10^4 cells, using the ProQuantum immunoassays kits for TNF-α, IFN-γ, IL-1β, IL-6, IL-10, and IL-4 [all from ThermoFisher Scientific (Waltham, MA)] according to the manufacturer’s instructions. The results were expressed as pg/mL based on the titration curved of each kits.

mouse primary neurons = assay: Viability of primary neuronal cultures, basal conditions (trypan blue); assay type: cell-based; conditions: 100 nM, 24 h
Procedure: A mouse primary cell experiment was performed to examine the neuroprotective effects of CB2R agonists selected for in-depth study (16i, 16j, 18e, 18f, 18o, and 18p). First, to exclude any intrinsic toxicity of the selected candidates, their potential effects on primary cell cultures were assessed. […] This finding is particularly noteworthy, and not self-evident, given the significant neurotoxicity observed during our earlier study with structurally related, classical abused [CB1R/CB2R promiscuous] synthetic cannabinoids (SCRAs). For comparative purposes, Figure A also depicts cell viability data obtained for some abused SCRAs (Figure A, gray bars) under identical conditions.
To prepare primary neurons, brains from fetuses of pregnant CD1 mice were removed (gestational age: 19 days). Neurons were isolated as described in Hradsky et al. Briefly, after removal of the meninges, samples were dissected and digested with 0.25% trypsin (20 min at 37 °C). The effect of trypsin was stopped by adding an equal volume of culture medium (supplemented DMEM). A single-cell suspension was obtained by repeated pipetting followed by passage through a 100 μm-pore mesh. Pelleted (7 min, 200g) cells were resuspended in 2 mL of supplemented DMEM and seeded at a density of 3.5 × 10^5 cells/mL in 6-well plates. After 24 h, the medium was replaced by neurobasal medium supplemented with 2 mM L-glutamine, 100 U/mL penicillin/streptomycin and 2% (v/v) B27 medium (GIBCO, Waltham, MA, USA). Primary neurons were assayed after 14 days in culture. Using NeuN as a marker, the percentage of neurons in the culture was >90%.
Primary cultures of striatal neurons were treated for 24 h with selected SCRAs (100 nM). Afterward, cells were scrapped from the plate and resuspended in neurobasal medium supplemented with 2 mM L-glutamine, 100 U/mL penicillin/streptomycin and 2% (v/v) B27 (GIBCO). Trypan blue staining was performed mixing 1 part of 0.4% trypan blue and 1 part of cell suspension in a plastic tube. After ∼3 min of incubation at room temperature, 10 μL of the mixture were sampled in a Neubauer chamber and counted with a Countess II FL (Life Technologies, California, CA, USA). The unstained (viable) and stained (nonviable) cells were counted separately, and the percentage of viability was calculated as total number of viable cells/total number of cells × 100.

CB2R [2] = molecular target: T1, CB2R (Homo sapiens, UniProt P34972); assay: CB2R radioligand binding competition ([3H]CP55,940); design: expressed in transfected cells; host or cells: HEK-293T (HEK-CB2 cell line); conditions: for Ki: displacement of [3H]CP 55,940, membranes of HEK-293T cells, n = 3; for SI Ki CB1R/Ki CB2R: selectivity index, affinity ratio
T1 sequence (P34972 whole entry): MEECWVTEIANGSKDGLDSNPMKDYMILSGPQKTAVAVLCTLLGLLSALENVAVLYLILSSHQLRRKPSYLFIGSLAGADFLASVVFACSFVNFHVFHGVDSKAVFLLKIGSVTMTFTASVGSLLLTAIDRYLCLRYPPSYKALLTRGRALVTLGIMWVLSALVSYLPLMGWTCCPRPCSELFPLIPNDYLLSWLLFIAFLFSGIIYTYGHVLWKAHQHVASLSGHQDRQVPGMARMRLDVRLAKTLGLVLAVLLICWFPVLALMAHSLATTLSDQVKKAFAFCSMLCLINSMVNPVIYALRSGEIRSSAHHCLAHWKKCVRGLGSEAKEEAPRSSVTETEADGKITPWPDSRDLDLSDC

CB2R [3] = molecular target: T1, CB2R; assay: CB2R β-arrestin recruitment; assay type: cell-based; design: expressed in transfected cells; host or cells: HEK-293T, transient transfection (PEI); conditions: for Emax: normalized to CP 55,940
Text: (§1) Initially we tested their ability to modify CB2R-mediated cAMP accumulation, providing insights into their functional behavior as either agonists or antagonists (Table ). Moreover, the signaling profiles of selected ligands were investigated through their impact on β-arrestin recruitment and Mitogen-Activated Protein Kinase (MAPK) phosphorylation pathway, enabling a more comprehensive evaluation of their intracellular signaling profiles (Table ).
(§2) JWH-133, a well-known nonbiased (balanced) agonist, was employed as the reference for comparing the signaling profiles of the tested compounds. An operational model analysis was applied to quantify the functional bias of each CB2R-selective agonist. This involved calculating the bias factor by comparing the signaling pathways: β-arrestin versus cAMP, MAPK versus cAMP, and β-arrestin versus MAPK.

CB2R [4] = molecular target: T1, CB2R; assay: CB2R MAPK phosphorylation; assay type: cell-based; design: expressed in transfected cells; host or cells: HEK-293T, transient transfection (PEI); conditions: for Emax: normalized to CP 55,940
Text: as §1, §2

CB2R [5] = molecular target: T1, CB2R; assay: Signaling bias quantification (relative activity model, JWH-133 reference); assay type: cell-based; design: expressed in transfected cells; host or cells: HEK-293T, transient transfection (PEI); conditions: in parentheses
Text: as §2

Structure (SMILES) | cytokine modulation profile (reduction of pro-inflammatory, increase of anti-inflammatory cytokines) [1] | production of pro-inflammatory cytokines (TNF-α, IFN-γ, IL-1β, IL-6) [1] | primary cell survival (mouse primary neurons) | Ki (CB2R [2]) | SI Ki CB1R/Ki CB2R (CB2R [2]) | EC50 (CB2R [3]) | Emax (CB2R [3]) | EC50 (CB2R [4]) | Emax (CB2R [4]) | Preferred (biased) pathway MAPK – cAMP (CB2R [5]) | Preferred (biased) pathway β-arrestin – MAPK (CB2R [5]) | Preferred (biased) pathway β-arrestin – cAMP (CB2R [5])
CCCCCn1nc(C(=O)N2CCCC[C@H]2C(=O)OC)c2ccccc21 [16i] | significant reduction | significantly reduced | did not affect primary cell survival | 10.9 ± 0.5 nM | 62 | 1.09 ± 0.01 nM | 48% | 0.38 ± 0.09 nM | 88% | G protein | MAPK | G protein
CCCCCn1nc(C(=O)N2CCCC[C@@H]2C(=O)OC)c2ccccc21 [16j] | significant reduction | significantly reduced | did not affect primary cell survival | 89.1 ± 3.1 nM | >100 | 0.28 ± 0.02 nM | 65% | 0.09 ± 0.003 nM | 89% | No bias | MAPK | G protein
NC(=O)[C@@H]1CCCCN1C(=O)c1cn(CC2CCCCC2)c2ccccc12 [18e] | limited efficacy | significantly reduced | did not affect primary cell survival | 30.2 ± 1.2 nM | >100 | 0.4 ± 0.08 nM | 120% | 0.09 ± 0.002 nM | 74% | MAPK | MAPK | β-arrestin
NC(=O)[C@H]1CCCCN1C(=O)c1cn(CC2CCCCC2)c2ccccc12 [18f] | limited efficacy | significantly reduced | did not affect primary cell survival | 96.8 ± 2.6 nM | >100 | 0.08 ± 0.01 nM | 88% | 0.07 ± 0.007 nM | 94% | MAPK | MAPK | β-arrestin
NC(=O)[C@@H]1CCCCN1C(=O)c1nn(Cc2ccc(F)cc2)c2ccccc12 [18o] | significant reduction | significantly reduced | did not affect primary cell survival | 54.6 ± 1.1 nM | >100 | 60.9 ± 2.5 nM | 148% | 0.03 ± 0.003 nM | 68% | MAPK | MAPK | G protein
NC(=O)[C@H]1CCCCN1C(=O)c1nn(Cc2ccc(F)cc2)c2ccccc12 [18p] | significant reduction | significantly reduced | did not affect primary cell survival | 120 ± 5 nM | >100 | 326 ± 4 nM | 77% | 0.4 ± 0.02 nM | 79% | MAPK | MAPK | G protein
